Measured values: patent US10801035B2, “Plants having increased tolerance to herbicides” (BASF SE, priority 2011, dated 2020)

How the values were obtained:
[1] = target: T1, Hordeum HPPD variant L320Q (Hordeum vulgare, UniProt O48604, A164G/L320Q/R146V/R147D/R148G); test: HPPD activity assay, Hordeum HPPD mutant L320Q; type: biochemical; conditions: normalized on wildtype
T1 construct: His6; made in house; host or cells: E. coli BL21 (DE3)
Method: (§1) HPPD produces homogentisic acid and CO2 from 4-hydroxyphenylpyruvate (4-HPP) and O2. The activity assay for HPPD is based on the analysis of homogentisic acid by reversed phase HPLC.
(§2) The assay mixture can contain 150 mM potassium phosphate buffer pH 7.0, 50 mM L-ascorbic acid, 1 μM FeSO4 and 7 μg of purified enzyme in a total volume of 1 ml. Inhibitors are dissolved in DMSO (dimethylsulfoxide) to a concentration of 20 mM or 0.5 mM, respectively. From this stock solution serial five-fold dilutions are prepared in DMSO, which are used in the assay. The respective inhibitor solution accounts for 1% of the assay volume. Thus, final inhibitor concentrations range from 200 μM to 2.5 nM or from 5 μM to 63 pM, respectively. After a preincubation of 30 min the reaction is started by adding 4-HPP to a final concentration of 0.1 mM. […]
(§3) Inhibitors are dissolved in DMSO (dimethylsulfoxide) to a concentration of 0.5 mM. […] IC50 values are calculated using non-linear regression.
(§4) Purified, mutant HPPD enzymes are obtained by the methods described above. […] Apparent michaelis constants (Km) and maximal reaction velocities (Vmax) are calculated by non-linear regression with the software GraphPad Prism 5 (GraphPad Software, La Jolla, USA) using a substrate inhibition model. […] Weighted means (by standard error) of Km and […] values are calculated from at least three independent experiments. […]

[2] = target: T2, Hordeum HPPD variant L353M, P321R, V212I (Hordeum vulgare, UniProt O48604, L353M/P321R/V212I); test: HPPD activity assay, Hordeum HPPD mutant L353M, P321R, V212I; type: biochemical; conditions: normalized on wildtype
T2 construct: His6; made in house; host or cells: E. coli BL21 (DE3)
T2 sequence (O48604 whole entry R146V/R147D/R148G/A164G/V212I/P321R/L353M): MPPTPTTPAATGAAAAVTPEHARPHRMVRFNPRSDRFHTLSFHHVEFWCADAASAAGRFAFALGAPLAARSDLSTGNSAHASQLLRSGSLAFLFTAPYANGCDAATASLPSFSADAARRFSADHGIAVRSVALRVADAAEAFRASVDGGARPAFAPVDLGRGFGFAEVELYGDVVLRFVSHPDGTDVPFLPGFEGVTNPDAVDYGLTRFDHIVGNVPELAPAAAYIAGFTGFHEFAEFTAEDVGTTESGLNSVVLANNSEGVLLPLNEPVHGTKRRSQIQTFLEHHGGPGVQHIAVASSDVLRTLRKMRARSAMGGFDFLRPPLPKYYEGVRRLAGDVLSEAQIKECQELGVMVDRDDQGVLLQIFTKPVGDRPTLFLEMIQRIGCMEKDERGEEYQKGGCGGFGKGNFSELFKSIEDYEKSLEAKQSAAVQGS
Method: as §1, §2, §3, §4

Lolium HPPD = test: HPPD activity assay, Lolium HPPD; type: biochemical; conditions: normalized on Hordeum HPPD
Method: as §1
as §2, with “volume.” for “volume. Thus, final inhibitor concentrations range from 200 μM to 2.5 nM or from 5 μM to 63 pM, respectively. After a preincubation of 30 min the reaction is started by adding 4-HPP to a final concentration of 0.1 mM.”
(§5) Activities are normalized by setting the uninhibited enzyme activity to 100%. […] values are calculated using non-linear regression. […]
as §3
(§6) Using methods which are described in the above examples or well known in the art, purified, recombinant wildtype HPPD enzymes are characterized with respect to their kinetic properties and sensitivity towards HPPD inhibiting herbicides. Apparent michaelis constants (Km) and maximal reaction velocities (Vmax) are calculated by non-linear regression with the software GraphPad Prism 5 (GraphPad Software, La Jolla, USA) using a substrate inhibition model. […]

[3] = target: T3, Hordeum HPPD variant V212L (Hordeum vulgare, UniProt O48604, A164G/R146V/R147D/R148G/V212L); test: HPPD activity assay, Hordeum HPPD mutant V212L; type: biochemical; conditions: normalized on wildtype
T3 construct: His6; made in house; host or cells: E. coli BL21 (DE3)
T3 sequence (O48604 whole entry R146V/R147D/R148G/A164G/V212L): as the sequence (O48604 whole entry R146V/R147D/R148G/A164G/V212I/P321R/L353M) above, with I212L, R321P, M353L counted along it
Method: as §1, §2, §3, §4

Blepharisma HPPD = test: HPPD activity assay, Blepharisma HPPD; type: biochemical; conditions: normalized on Hordeum HPPD
Method: as §1
as §2, with “volume.” for “volume. Thus, final inhibitor concentrations range from 200 μM to 2.5 nM or from 5 μM to 63 pM, respectively. After a preincubation of 30 min the reaction is started by adding 4-HPP to a final concentration of 0.1 mM.”
as §5, §3, §6

[4] = test system: transgenic Arabidopsis plants overexpressing Barley HPPD (Seq ID: 2); test: Arabidopsis growth inhibition in 48-well plates, line overexpressing Barley HPPD; type: in vivo, Arabidopsis thaliana; conditions: Barley HPPD (Seq ID: 2) overexpression line; plant growth IC50 of transgenic divided by wildtype
Method: Depending on the species, the plants are kept at 10-25° C. or 20-35° C. The test period extends over 3 weeks. During this time, the plants are tended and their response to the individual treatments is evaluated. Herbicide injury evaluations are taken at 2 and 3 weeks after treatment. Plant injury is rated on a scale of 0 to 9, 0 being no injury and 9 being complete death. Tolerance to coumarone-derivative herbicides can also be assessed in Arabidopsis. In this case transgenic Arabidopsis thaliana plants are assayed for improved tolerance to coumarone-derivative herbicides in 48-well plates. Seeds are surface sterilized by stirring for 5 min in ethanol+water (70+30 by volume), rinsing one time with ethanol+water (70+30 by volume) and two times with a sterile, deionized water. The seeds are resuspended in 0.1% agar dissolved in water (w/v). Four to five seeds per well are plated on solid nutrient medium consisting of half-strength Murashige Skoog nutrient solution, pH 5.8 (Murashige and Skoog (1962) Physiologia Plantarum 15: 473-497). […] Seven to ten days after seeding growth inhibition is evaluated by comparison to wild type plants. Tolerance factor is calculated by dividing the plant growth IC50 value of transgenic plants containing a HPPD and/or HST sequence by that of wildtype plants. […]

[5] = target: T4, Hordeum HPPD variant L320H, P321A (Hordeum vulgare, UniProt O48604, L320H/P321A); test: HPPD activity assay, Hordeum HPPD mutant L320H, P321A; type: biochemical; conditions: normalized on wildtype
T4 construct: His6; made in house; host or cells: E. coli BL21 (DE3)
T4 sequence (O48604 whole entry R146V/R147D/R148G/A164G/L320H/P321A): as the sequence (O48604 whole entry R146V/R147D/R148G/A164G/V212I/P321R/L353M) above, with I212V, L320H, R321A, M353L counted along it
Method: as §1, §2, §3, §4

T1 sequence (O48604 whole entry R146V/R147D/R148G/A164G/L320Q): as the sequence (O48604 whole entry R146V/R147D/R148G/A164G/V212I/P321R/L353M) above, with I212V, L320Q, R321P, M353L counted along it

SMILES | Normalized tolerance index (TI) [1] | Normalized tolerance index (TI) [2] | Normalized tolerance index (TI) (Lolium HPPD) | Normalized tolerance index (TI) [3] | Normalized tolerance index (TI) (Blepharisma HPPD) | Tolerance factor [4] | Normalized tolerance index (TI) [5]
CC1=NOC(c2c(Cl)ccc(C3=C(O)c4ncccc4N(CC(F)F)S3(=O)=O)c2Cl)C1 (centres unmarked) [Inhibitor 1, 3-[2,4-dichloro-3-(3-methyl-4,5-dihydroisoxazol-5-yl)phenyl]-1-(2,2-difluoroethyl)-2,2-dioxo-pyrido[3,2-c]thiazin-4-ol] | 3.4 | 2.3 | 6.5 | 2.6 | 6.3 | 3 | 6.5
O=S1(=O)C(c2c(Cl)cc(Cl)nc2Cl)=C(O)c2ncccc2N1CC(F)F [Inhibitor 2, 1-(2,2-difluoroethyl)-2,2-dioxo-3-(2,4,6-trichloro-3-pyridyl)pyrido[3,2-c]thiazin-4-ol] | 1.8 | 3 | 5.6 | 0.5 | 4.9 | 4 | 3.7
